For data set [1] the following is noted: given i.c.v.; cited from earlier work.
Data set [2] concerns the target μ and κ receptor. The following applies: cited from earlier work.
The conditions of data set [3]: cited from earlier work.
Data set [4] deals with T1, δ receptor (Mus musculus, UniProt P32300). The following applies: cited from earlier work.
The target in data set [5] is T2, μ opioid receptors (Rattus norvegicus, UniProt P33535). The following applies: read-out: Ki^μ; [3H]DAMGO, rat brain membranes; cited from earlier work.
For another data set, the target named is κ opioid receptor (Cavia porcellus, UniProt P41144). The following applies: read-out: Ki^κ; [3H]U69,593, guinea pig brain membranes; cited from earlier work.
In data set [6] the target is T1, δ receptor. Put plainly: mouse vas deferens.
Data set [7] deals with T2, μ opioid receptors. Put plainly: μ opioid receptor binding, displacement of [3H]DAMGO from rat brain membranes. The following applies: relative to 4a.
Data set [8] relates to μ and κ receptor. Kind of data set: guinea pig ileum.

Where two headings read alike, the source gives them in different places. Where a SMILES comes first, the peptide text is derived from it. [ ]: non-standard residue; d: D form. Dmt = Cc1cc(O)cc(C)c1C[C@H](N)C(=O)O; Tic = O=C(O)[C@@H]1Cc2ccccc2CN1

T1 sequence (P32300 whole entry): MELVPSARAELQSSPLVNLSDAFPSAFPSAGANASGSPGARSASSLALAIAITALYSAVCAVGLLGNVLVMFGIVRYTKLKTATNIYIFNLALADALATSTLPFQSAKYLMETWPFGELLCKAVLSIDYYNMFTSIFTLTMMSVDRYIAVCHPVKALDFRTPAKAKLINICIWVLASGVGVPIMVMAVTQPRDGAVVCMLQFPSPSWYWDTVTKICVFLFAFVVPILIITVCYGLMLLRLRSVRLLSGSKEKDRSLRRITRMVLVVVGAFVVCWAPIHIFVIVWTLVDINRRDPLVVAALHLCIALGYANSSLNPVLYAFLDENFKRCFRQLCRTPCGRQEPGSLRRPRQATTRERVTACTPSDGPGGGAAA
T2 sequence (P33535 whole entry): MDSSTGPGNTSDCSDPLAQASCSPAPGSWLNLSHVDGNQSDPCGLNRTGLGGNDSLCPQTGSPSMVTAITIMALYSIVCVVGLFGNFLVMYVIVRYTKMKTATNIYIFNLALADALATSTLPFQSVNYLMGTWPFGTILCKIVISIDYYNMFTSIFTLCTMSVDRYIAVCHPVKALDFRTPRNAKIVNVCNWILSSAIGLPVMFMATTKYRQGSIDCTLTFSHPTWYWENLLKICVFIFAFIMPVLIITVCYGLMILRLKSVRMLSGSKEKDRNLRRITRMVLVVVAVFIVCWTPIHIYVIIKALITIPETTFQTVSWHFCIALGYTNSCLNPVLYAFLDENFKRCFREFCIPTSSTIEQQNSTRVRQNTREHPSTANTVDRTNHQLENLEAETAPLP
κ opioid receptor, sequence (P41144 whole entry): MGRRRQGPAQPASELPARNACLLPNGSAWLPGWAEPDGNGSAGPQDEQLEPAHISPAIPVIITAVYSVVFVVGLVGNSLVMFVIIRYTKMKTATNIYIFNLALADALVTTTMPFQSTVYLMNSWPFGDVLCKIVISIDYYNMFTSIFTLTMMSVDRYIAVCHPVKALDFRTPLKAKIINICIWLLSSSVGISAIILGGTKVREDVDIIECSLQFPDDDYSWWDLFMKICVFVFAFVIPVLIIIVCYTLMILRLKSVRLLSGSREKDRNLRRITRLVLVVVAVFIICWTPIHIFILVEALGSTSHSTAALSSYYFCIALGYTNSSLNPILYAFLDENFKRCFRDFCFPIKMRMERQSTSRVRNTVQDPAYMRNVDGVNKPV

As usually defined, the IC50 is the point on the concentration scale where inhibition reaches its midpoint. “H-Dmt-Ticψ[CH2NH]Phe-Phe-NH2 [Compound 5a]”: in data set [1], the “analgesic effect in the rat tail flick test” value was “potent analgesic effect”. The IC50 at μ and κ receptor [2] (read-out: GPI IC50 (agonist potency)) was 7.71 ± 0.31 nM. For the same molecule, in data set [3], the “physical dependence upon chronic administration” value is “no physical dependence”. For the same molecule, the “analgesic tolerance upon chronic administration” value in [3] (compared with morphine) is reported as “less analgesic tolerance than morphine”. Also, the “MVD Ke (δ antagonist activity)” value at δ receptor [4] is 0.537 ± 0.026 nM.

As to H-[Dmt][Tic]FF-OH [Compound 2a], in the data set on μ and κ receptor [2], the “GPI IC50 (agonist potency)” value was “inactive”. On δ receptor [4], the “MVD Ke (δ antagonist activity)” value is 0.196 ± 0.008 nM and the “type of activity in the MVD assay” value was “potent δ antagonists”.

Turning to “H-Tyr-Ticψ[CH2NH]Phe-Phe-OH [Compound 3a]”, in the data set on μ and κ receptor [2], the “GPI IC50 (agonist potency)” value is “inactive”. Also, the “type of activity in the MVD assay” value at δ receptor [4] is “potent δ antagonists”.

One may read the Ki as a dissociation constant, usually derived from enzyme kinetics or from competition with a known ligand. Regarding H-[Dmt]-[Tic]-OH [Compound 8a], the “GPI IC50 (agonist potency)” value with μ and κ receptor [2] is given as “Inactive”. Besides, the inhibition constant Ki was 1360 ± 160 nM at μ opioid receptors [5] and greater than 1000 nM on κ opioid receptor.

Take H-[Dmt][Tic]FF-NH2 [Compound 4a]: the “MVD Ke (δ antagonist activity)” value on δ receptor [4] is 0.209 ± 0.037 nM.

Consider H-Y[Tic]FF-OH [Compound 1a], for which the “GPI IC50 (agonist potency)” value with μ and κ receptor [2] is “inactive”. In addition, the “type of activity in the MVD assay” value on δ receptor [4] is listed as “potent δ antagonists”.

Regarding `Cc1cc(O)cc(C)c1C[C@H](N)C(=O)N1Cc2ccccc2C[C@H]1C(=O)N[C@@H](CCCCN)C(=O)N[C@@H](Cc1ccccc1)C(N)=O` [Compound 6a, H-Dmt-Tic-Lys-Phe-NH2] (HELM PEPTIDE1{[Cc1cc(O)cc(C)c1C[C@H](N)C(=O)[*:2]].[Tic].K.F.[am]}$$$$V2.0), on δ receptor [6], the Kb came out at 2.18 ± 0.3 nM and the “type of activity in the MVD assay” value was “δ antagonist”. Moreover, on μ opioid receptors [7], the “fold lower μ receptor affinity than 4a” value is listed as 16 fold. Besides, the “type of activity in the GPI assay” value in the data set on μ and κ receptor [8] is recorded as “μ agonist”.

The values are drawn from article PMC3776131 (Bioorganic & medicinal chemistry letters, 2013).
